Experimental data as given in patent US12357631B2 (priority 2018, dated 2025).

Target: PB2 (Influenza A virus, UniProt P03428)
Test: biochemical
Format: binding

PB2, sequence (P03428 whole entry, looked up): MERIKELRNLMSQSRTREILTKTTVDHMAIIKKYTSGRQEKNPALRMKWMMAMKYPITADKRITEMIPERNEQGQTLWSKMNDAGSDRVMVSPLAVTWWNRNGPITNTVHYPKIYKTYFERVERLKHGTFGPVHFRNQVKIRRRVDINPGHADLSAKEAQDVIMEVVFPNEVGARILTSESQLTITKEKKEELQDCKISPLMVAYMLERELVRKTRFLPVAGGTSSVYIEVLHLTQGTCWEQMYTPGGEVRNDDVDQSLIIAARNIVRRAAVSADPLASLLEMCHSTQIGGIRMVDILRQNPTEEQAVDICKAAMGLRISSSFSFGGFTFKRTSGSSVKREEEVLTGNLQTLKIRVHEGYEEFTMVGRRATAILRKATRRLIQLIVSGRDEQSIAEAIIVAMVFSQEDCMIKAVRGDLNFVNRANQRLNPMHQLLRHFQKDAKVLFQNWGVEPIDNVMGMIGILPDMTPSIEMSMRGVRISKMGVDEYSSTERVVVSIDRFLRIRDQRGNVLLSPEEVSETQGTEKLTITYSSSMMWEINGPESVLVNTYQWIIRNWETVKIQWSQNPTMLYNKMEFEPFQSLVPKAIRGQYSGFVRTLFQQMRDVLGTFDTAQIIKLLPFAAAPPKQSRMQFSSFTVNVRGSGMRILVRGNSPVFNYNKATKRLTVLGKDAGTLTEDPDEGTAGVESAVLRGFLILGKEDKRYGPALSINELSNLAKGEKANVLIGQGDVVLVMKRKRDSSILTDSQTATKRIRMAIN

Row | Structure (SMILES) | EC50
1 | O=C(NCC1COCCN1)OCc1ccnc(C(=O)N[C@H]2CCC[C@@H](Nc3nc(-c4c[nH]c5ncc(F)cc45)ncc3F)C2)c1 (stereo partly shown) [Compound A120] | 5 to 25 µM
2 | O=C(NCC(=O)N1CCOCC1)OCc1ccnc(C(=O)N[C@H]2CCC[C@@H](Nc3nc(-c4c[nH]c5ncc(F)cc45)ncc3F)C2)c1 [Compound A121] | 5 to 25 µM
3 | COc1ccccc1CNC(=O)OCc1ccnc(C(=O)N[C@H]2CCC[C@@H](Nc3nc(-c4c[nH]c5ncc(F)cc45)ncc3F)C2)c1 [Compound A122] | > 100 µM
4 | Cc1ccccc1CNC(=O)OCc1ccnc(C(=O)N[C@H]2CCC[C@@H](Nc3nc(-c4c[nH]c5ncc(F)cc45)ncc3F)C2)c1 [Compound A123] | > 100 µM
5 | O=C(NCc1ccccc1F)OCc1ccnc(C(=O)N[C@H]2CCC[C@@H](Nc3nc(-c4c[nH]c5ncc(F)cc45)ncc3F)C2)c1 [Compound A124] | > 100 µM
6 | O=C(NCc1cccc(F)c1)OCc1ccnc(C(=O)N[C@H]2CCC[C@@H](Nc3nc(-c4c[nH]c5ncc(F)cc45)ncc3F)C2)c1 [Compound A125] | > 100 µM
7 | COc1ccc(CNC(=O)OCc2ccnc(C(=O)N[C@H]3CCC[C@@H](Nc4nc(-c5c[nH]c6ncc(F)cc56)ncc4F)C3)c2)cc1OC [Compound A126] | > 100 µM
8 | Cc1cccc(CNC(=O)OCc2ccnc(C(=O)N[C@H]3CCC[C@@H](Nc4nc(-c5c[nH]c6ncc(F)cc56)ncc4F)C3)c2)c1 [Compound A127] | > 100 µM
9 | CCC(CC)OCCNC(=O)OCc1ccnc(C(=O)N[C@H]2CCC[C@@H](Nc3nc(-c4c[nH]c5ncc(F)cc45)ncc3F)C2)c1 [Compound A128] | > 100 µM
10 | O=C(CNC(=O)OCc1ccnc(C(=O)N[C@H]2CCC[C@@H](Nc3nc(-c4c[nH]c5ncc(F)cc45)ncc3F)C2)c1)Nc1ccccc1C(=O)O [Compound A129] | < 5 µM
11 | O=C(NCc1ccc2c(c1)OCO2)OCc1ccnc(C(=O)N[C@H]2CCC[C@@H](Nc3nc(-c4c[nH]c5ncc(F)cc45)ncc3F)C2)c1 [Compound A130] | > 100 µM
12 | CC(NC(=O)OCc1ccnc(C(=O)N[C@H]2CCC[C@@H](Nc3nc(-c4c[nH]c5ncc(F)cc45)ncc3F)C2)c1)c1ccc(F)cc1 (stereo partly shown) [Compound A131] | > 100 µM
13 | CCOc1ccccc1CNC(=O)OCc1ccnc(C(=O)N[C@H]2CCC[C@@H](Nc3nc(-c4c[nH]c5ncc(F)cc45)ncc3F)C2)c1 [Compound A133] | > 100 µM
14 | C[C@H](NC(=O)OCc1ccnc(C(=O)N[C@@H]2CCC[C@H](Nc3nc(-c4c[nH]c5ncc(F)cc45)ncc3F)C2)c1)C(=O)O [Compound A134] | < 5 µM
15 | CC(C)[C@H](NC(=O)OCc1ccnc(C(=O)N[C@@H]2CCC[C@H](Nc3nc(-c4c[nH]c5ncc(F)cc45)ncc3F)C2)c1)C(=O)O [Compound A135] | 5 to 25 µM
16 | CC(NC(=O)OCc1ccnc(C(=O)N[C@H]2CCC[C@@H](Nc3nc(-c4c[nH]c5ncc(F)cc45)ncc3F)C2)c1)c1ccccn1 (stereo partly shown) [Compound A136] | 5 to 25 µM
17 | Cc1ccc(CNC(=O)OCc2ccnc(C(=O)N[C@H]3CCC[C@@H](Nc4nc(-c5c[nH]c6ncc(F)cc56)ncc4F)C3)c2)cc1 [Compound A138] | > 100 µM
18 | CCOc1ccc(CNC(=O)OC(C)c2ccnc(C(=O)N[C@H]3CCC[C@@H](Nc4nc(-c5c[nH]c6ncc(F)cc56)ncc4F)C3)c2)cc1 (stereo partly shown) [Compound A139] | > 100 µM
19 | C[C@@H](NC(=O)OCc1ccnc(C(=O)N[C@@H]2CCC[C@H](Nc3nc(-c4c[nH]c5ncc(F)cc45)ncc3F)C2)c1)C(=O)O [Compound A141] | < 5 µM
20 | CC(C)[C@@H](NC(=O)OCc1ccnc(C(=O)N[C@@H]2CCC[C@H](Nc3nc(-c4c[nH]c5ncc(F)cc45)ncc3F)C2)c1)C(=O)O [Compound A142] | < 5 µM
21 | CC(NC(=O)OCc1ccnc(C(=O)N[C@H]2CCC[C@@H](Nc3nc(-c4c[nH]c5ncc(F)cc45)ncc3F)C2)c1)c1ccccc1F (stereo partly shown) [Compound A143] | > 100 µM
22 | CCOc1ccc(C(C)NC(=O)OCc2ccnc(C(=O)N[C@H]3CCC[C@@H](Nc4nc(-c5c[nH]c6ncc(F)cc56)ncc4F)C3)c2)cc1 (stereo partly shown) [Compound A145] | > 100 µM
